Test results published in ChEMBL document CHEMBL2046399, “Effect of C-ring modifications on the cytotoxicity of spirostan saponins and related glycosides” (Bioorg Med Chem, 2012).
Active and inactive are the calls of the source. The rule behind the calls is not given here.

What was measured:
HL-60 [1] = experiment: Cytotoxicity against human HL60 cells after 72 hrs by MTT assay; type: functional, cell-based; settings: HL-60, 72 h
HL-60 [2] = experiment: Cytotoxicity against human HL60 cells assessed as cell viability at 30 uM after 24 hrs by MTT assay relative to control; type: functional; settings: HL-60, 24 h, read-out: Activity
[3] = Cytotoxicity against human PBMC assessed as cell viability at 30 uM after 24 hrs by MTT assay relative to control; type: cell-based; settings: PBMC (peripheral blood mononuclear cells), read-out: Activity
HL-60 [4] = experiment: Cytotoxicity against human HL60 cells at 3 to 60 uM after 24 hrs by MTT assay; type: functional, cell-based
PBMC = experiment: Cytotoxicity against human PBMC at 3 to 60 uM after 24 hrs by MTT assay; type: cell-based
[5] = Cytotoxicity against human PBMC assessed as cell viability at 10 uM after 24 hrs by MTT assay relative to control; type: cell-based; settings: PBMC (peripheral blood mononuclear cells), read-out: Activity
HL-60 [6] = experiment: Cytotoxicity against human HL60 cells assessed as cell viability at 10 uM after 24 hrs by MTT assay relative to control; type: functional; settings: HL-60, 24 h, read-out: Activity

Structure (SMILES) | IC50 (HL-60 [1]) [µM] | Activity (HL-60 [4]) | Activity (PBMC) | further results
C[C@@H]1CC[C@@]2(OC1)O[C@H]1C[C@H]3[C@@H]4CC[C@H]5C[C@@H](O[C@@H]6O[C@H](CO)[C@@H](O[C@@H]7O[C@@H](C)[C@H](O)[C@@H](O)[C@H]7O)[C@H](O)[C@H]6O[C@@H]6O[C@@H](C)[C@H](O)[C@@H](O)[C@H]6O)CC[C@]5(C)C4=CC(=O)[C@]3(C)[C@H]1[C@@H]2C | 30.4 | – | – | –
CO[C@@H]1C[C@H]2[C@@H](CC[C@H]3C[C@@H](O[C@@H]4O[C@H](CO)[C@@H](O[C@@H]5O[C@@H](C)[C@H](O)[C@@H](O)[C@H]5O)[C@H](O)[C@H]4O[C@@H]4O[C@@H](C)[C@H](O)[C@@H](O)[C@H]4O)CC[C@@]32C)[C@@H]2C[C@@H]3O[C@]4(CC[C@@H](C)CO4)[C@@H](C)[C@@H]3[C@@]12C | 21.8 | – | – | –
C[C@@H]1CC[C@@]2(OC1)O[C@H]1C[C@@H]([C@@H]3CC[C@H]4C[C@@H](O[C@@H]5O[C@H](CO)[C@@H](O[C@@H]6O[C@@H](C)[C@H](O)[C@@H](O)[C@H]6O)[C@H](O)[C@H]5O[C@@H]5O[C@@H](C)[C@H](O)[C@@H](O)[C@H]5O)CC[C@]4(C)[C@H]3CC(=O)O)[C@](C)(O)[C@H]1[C@@H]2C | > 100 | – | – | –
C=C1C[C@H]2[C@@H](CC[C@H]3C[C@@H](O[C@@H]4O[C@H](CO)[C@@H](O[C@@H]5O[C@@H](C)[C@H](O)[C@@H](O)[C@H]5O)[C@H](O)[C@H]4O[C@@H]4O[C@@H](C)[C@H](O)[C@@H](O)[C@H]4O)CC[C@@]32C)[C@@H]2C[C@@H]3O[C@]4(CC[C@@H](C)CO4)[C@@H](C)[C@@H]3[C@@]12C | 9.7 | – | – | viability at 30 µM (HL-60 [2]): 23%; viability at 24 h, 30 µM [3]: 64.2%
C[C@@H]1CC[C@@]2(OC1)O[C@H]1C[C@H]3[C@@H]4CC[C@H]5C[C@@H](O[C@@H]6O[C@H](COC(=O)C(C)(C)C)[C@@H](O)[C@H](OC(=O)C(C)(C)C)[C@H]6O)CC[C@]5(C)[C@H]4CC(=O)O[C@]3(C)[C@H]1[C@@H]2C | 9.9 | Active | Toxic | –
C=C1C[C@H]2[C@@H](CC[C@H]3C[C@@H](O[C@@H]4O[C@H](COC(=O)C(C)(C)C)[C@@H](O)[C@H](OC(=O)C(C)(C)C)[C@H]4O)CC[C@@]32C)[C@@H]2C[C@@H]3O[C@]4(CC[C@@H](C)CO4)[C@@H](C)[C@@H]3[C@@]12C | 15.7 | Active | Toxic | –
CO[C@H]1C[C@H]2[C@@H](CC[C@H]3C[C@@H](O[C@@H]4O[C@H](COC(=O)C(C)(C)C)[C@@H](O)[C@H](OC(=O)C(C)(C)C)[C@H]4O)CC[C@@]32C)[C@@H]2C[C@@H]3O[C@]4(CC[C@@H](C)CO4)[C@@H](C)[C@@H]3[C@@]12C | 21.5 | – | – | –
C[C@@H]1CC[C@@]2(OC1)O[C@H]1C[C@H]3[C@@H]4CC[C@H]5C[C@@H](O[C@@H]6O[C@H](COC(=O)C(C)(C)C)[C@@H](O)[C@H](OC(=O)C(C)(C)C)[C@H]6O)CC[C@]5(C)[C@H]4CC[C@]3(C)[C@H]1[C@@H]2C | 8.9 | Active | Toxic | –
C[C@@H]1CC[C@@]2(OC1)O[C@H]1C[C@H]3[C@@H]4CC[C@H]5C[C@@H](O[C@@H]6O[C@H](COC(=O)C(C)(C)C)[C@@H](O)[C@H](OC(=O)C(C)(C)C)[C@H]6O)CC[C@]5(C)C4=CC(=O)[C@]3(C)[C@H]1[C@@H]2C | 5.9 | – | – | –
CO[C@@H]1C[C@H]2[C@@H](CC[C@H]3C[C@@H](O[C@@H]4O[C@H](COC(=O)C(C)(C)C)[C@@H](O)[C@H](OC(=O)C(C)(C)C)[C@H]4O)CC[C@@]32C)[C@@H]2C[C@@H]3O[C@]4(CC[C@@H](C)CO4)[C@@H](C)[C@@H]3[C@@]12C | 19.2 | Active | Toxic | –
C[C@@H]1CC[C@@]2(OC1)O[C@H]1C[C@H]3[C@@H]4CC[C@H]5C[C@@H](O[C@@H]6O[C@H](CO)[C@@H](O[C@@H]7O[C@@H](C)[C@H](O)[C@@H](O)[C@H]7O)[C@H](O)[C@H]6O[C@@H]6O[C@@H](C)[C@H](O)[C@@H](O)[C@H]6O)CC[C@]5(C)[C@H]4CC[C@]3(C)[C@H]1[C@@H]2C | 2.6 | – | – | viability at 24 h, 10 µM [5]: 45%; viability at 10 µM (HL-60 [6]): 17%
CO[C@H]1C[C@H]2[C@@H](CC[C@H]3C[C@@H](O[C@@H]4O[C@H](CO)[C@@H](O[C@@H]5O[C@@H](C)[C@H](O)[C@@H](O)[C@H]5O)[C@H](O)[C@H]4O[C@@H]4O[C@@H](C)[C@H](O)[C@@H](O)[C@H]4O)CC[C@@]32C)[C@@H]2C[C@@H]3O[C@]4(CC[C@@H](C)CO4)[C@@H](C)[C@@H]3[C@@]12C | 31.5 | – | – | –
